Results: PubChem BioAssay AID2060492 (Molecular Pharmacology Branch, DTP, NCI, 2025)

Test system: 695427-040-R-J1-PDC complex spheroids, viability percent T/C
Test: Anticancer human tumor 695427-040-R-J1-PDC patient-derived colon adenocarcinoma cell line growth inhibition [GQUAD]
Conditions: for IC50: curve of first compound; for viability, T/C: stronger effect = lower value; active = viability on the fitted dose curve at most 10% of control; inactive = the rest
In short: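 Multi-cell-type spheroids of tumor cells with HUVEC and mesenchymal stem cells, treated with drug combinations. Concentrations descend in half-log steps from near clinical Cmax, or from 10 microM where Cmax is unknown; viability read-out.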

[1] = second compound 0.0316 µM, first compound 0.0316 µM
[2] = second compound 0.0316 µM, first compound 0.316 µM
[3] = second compound 0.1 µM, first compound 0.0316 µM
[4] = second compound 0.1 µM, first compound 0.316 µM
[5] = second compound 0.316 µM, first compound 0.0316 µM
[6] = second compound 0.316 µM, first compound 0.316 µM
[7] = second compound 1 µM, first compound 0.0316 µM
[8] = second compound 1 µM, first compound 0.316 µM
[9] = second compound 3.16 µM, first compound 0.0316 µM
[10] = second compound 3.16 µM, first compound 0.316 µM
[11] = second compound 10 µM, first compound 0.0316 µM
[12] = second compound 10 µM, first compound 0.316 µM
[13] = second compound 0.0316 µM, first compound 0.000999 µM
[14] = second compound 0.0316 µM, first compound 0.00316 µM
[15] = second compound 0.0316 µM, first compound 0.00999 µM
[16] = second compound 0.0316 µM, first compound 0.0999 µM
[17] = second compound 0.1 µM, first compound 0.000999 µM
[18] = second compound 0.1 µM, first compound 0.00316 µM
[19] = second compound 0.1 µM, first compound 0.00999 µM
[20] = second compound 0.1 µM, first compound 0.0999 µM
[21] = second compound 0.316 µM, first compound 0.000999 µM
[22] = second compound 0.316 µM, first compound 0.00316 µM
[23] = second compound 0.316 µM, first compound 0.00999 µM
[24] = second compound 0.316 µM, first compound 0.0999 µM
[25] = second compound 1 µM, first compound 0.000999 µM
[26] = second compound 1 µM, first compound 0.00316 µM
[27] = second compound 1 µM, first compound 0.00999 µM
[28] = second compound 1 µM, first compound 0.0999 µM
[29] = second compound 3.16 µM, first compound 0.000999 µM
[30] = second compound 3.16 µM, first compound 0.00316 µM
[31] = second compound 3.16 µM, first compound 0.00999 µM
[32] = second compound 3.16 µM, first compound 0.0999 µM
[33] = second compound 10 µM, first compound 0.000999 µM
[34] = second compound 10 µM, first compound 0.00316 µM
[35] = second compound 10 µM, first compound 0.00999 µM
[36] = second compound 10 µM, first compound 0.0999 µM
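Also: spheroids exposed to compounds for seven days before readout.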

C=CC(=O)N1CCN(c2nc(=O)n(-c3c(C)ccnc3C(C)C)c3nc(-c4c(O)cccc4F)c(F)cc23)C(C)C1 (stereo unspecified) + CN(C)c1ccc(Nc2c3ccc(NC(=O)CCN4CCCC4)cc3nc3cc(NC(=O)CCN4CCCC4)ccc23)cc1
> 10000 nM: IC50 (second compound 0.0316 µM) | IC50 (second compound 0.1 µM) | IC50 (second compound 0.316 µM) | IC50 (second compound 1 µM) | IC50 (second compound 3.16 µM) | IC50 (second compound 10 µM)
inactive: viability, T/C [1] 107% | viability, T/C (second compound 0.0316 µM, first compound 0.1 µM) 109% | viability, T/C [2] 102% | viability, T/C (second compound 0.0316 µM, first compound 1 µM) 104% | viability, T/C (second compound 0.0316 µM, first compound 3.16 µM) 106% | viability, T/C (second compound 0.0316 µM, first compound 10 µM) 112% | viability, T/C [3] 104% | viability, T/C (second compound 0.1 µM, first compound 0.1 µM) 95% | viability, T/C [4] 104% | viability, T/C (second compound 0.1 µM, first compound 1 µM) 94.6% | viability, T/C (second compound 0.1 µM, first compound 3.16 µM) 103% | viability, T/C (second compound 0.1 µM, first compound 10 µM) 110% | viability, T/C [5] 113% | viability, T/C (second compound 0.316 µM, first compound 0.1 µM) 113% | viability, T/C [6] 107% | viability, T/C (second compound 0.316 µM, first compound 1 µM) 102% | viability, T/C (second compound 0.316 µM, first compound 3.16 µM) 106% | viability, T/C (second compound 0.316 µM, first compound 10 µM) 108% | viability, T/C [7] 97.9% | viability, T/C (second compound 1 µM, first compound 0.1 µM) 106% | viability, T/C [8] 99.7% | viability, T/C (second compound 1 µM, first compound 1 µM) 107% | viability, T/C (second compound 1 µM, first compound 3.16 µM) 108% | viability, T/C (second compound 1 µM, first compound 10 µM) 107% | viability, T/C [9] 107% | viability, T/C (second compound 3.16 µM, first compound 0.1 µM) 90.9% | viability, T/C [10] 100% | viability, T/C (second compound 3.16 µM, first compound 1 µM) 98.5% | viability, T/C (second compound 3.16 µM, first compound 3.16 µM) 101% | viability, T/C (second compound 3.16 µM, first compound 10 µM) 100% | viability, T/C [11] 99.2% | viability, T/C (second compound 10 µM, first compound 0.1 µM) 89.7% | viability, T/C [12] 89.7% | viability, T/C (second compound 10 µM, first compound 1 µM) 92% | viability, T/C (second compound 10 µM, first compound 3.16 µM) 99.1% | viability, T/C (second compound 10 µM, first compound 10 µM) 90.6%

CC[C@@]1(O)C(=O)OCc2c1cc1n(c2=O)Cc2cc3c(CN(C)C)c(O)ccc3nc2-1 + CN(C)c1ccc(Nc2c3ccc(NC(=O)CCN4CCCC4)cc3nc3cc(NC(=O)CCN4CCCC4)ccc23)cc1
> 316 nM: IC50 (second compound 0.0316 µM) | IC50 (second compound 0.1 µM) | IC50 (second compound 0.316 µM) | IC50 (second compound 1 µM) | IC50 (second compound 3.16 µM) | IC50 (second compound 10 µM)
inactive: viability, T/C [13] 109% | viability, T/C [14] 95% | viability, T/C [15] 108% | viability, T/C [1] 100% | viability, T/C [16] 104% | viability, T/C [2] 91.6% | viability, T/C [17] 117% | viability, T/C [18] 101% | viability, T/C [19] 96.8% | viability, T/C [3] 101% | viability, T/C [20] 98.9% | viability, T/C [4] 85% | viability, T/C [21] 97.6% | viability, T/C [22] 104% | viability, T/C [23] 100% | viability, T/C [5] 111% | viability, T/C [24] 100% | viability, T/C [6] 95.8% | viability, T/C [25] 101% | viability, T/C [26] 95.2% | viability, T/C [27] 96.1% | viability, T/C [7] 99.9% | viability, T/C [28] 97.8% | viability, T/C [8] 93.7% | viability, T/C [29] 99.2% | viability, T/C [30] 100% | viability, T/C [31] 96.2% | viability, T/C [9] 103% | viability, T/C [32] 110% | viability, T/C [10] 82.1% | viability, T/C [33] 94.3% | viability, T/C [34] 84.8% | viability, T/C [35] 92.2% | viability, T/C [11] 88.3% | viability, T/C [36] 91% | viability, T/C [12] 88.6%

CCc1c2c(nc3ccc(O)cc13)-c1cc3c(c(=O)n1C2)COC(=O)[C@]3(O)CC + CN(C)c1ccc(Nc2c3ccc(NC(=O)CCN4CCCC4)cc3nc3cc(NC(=O)CCN4CCCC4)ccc23)cc1
252 nM: IC50 (second compound 10 µM)
247 nM: IC50 (second compound 3.16 µM)
inactive: viability, T/C [13] 104% | viability, T/C [14] 94.5% | viability, T/C [15] 93.3% | viability, T/C [1] 74.7% | viability, T/C [16] 70.8% | viability, T/C [2] 51.3% | viability, T/C [17] 108% | viability, T/C [18] 90.2% | viability, T/C [19] 85.4% | viability, T/C [3] 73.2% | viability, T/C [20] 68.5% | viability, T/C [4] 53.2% | viability, T/C [21] 103% | viability, T/C [22] 94% | viability, T/C [23] 84% | viability, T/C [5] 75% | viability, T/C [24] 64.2% | viability, T/C [6] 49.6% | viability, T/C [25] 99.2% | viability, T/C [26] 89.3% | viability, T/C [27] 82.1% | viability, T/C [7] 76.1% | viability, T/C [28] 66.8% | viability, T/C [8] 51% | viability, T/C [29] 94.2% | viability, T/C [30] 97.8% | viability, T/C [31] 85.7% | viability, T/C [9] 76.5% | viability, T/C [32] 64.2% | viability, T/C [10] 46.2% | viability, T/C [33] 90.2% | viability, T/C [34] 88% | viability, T/C [35] 71.9% | viability, T/C [11] 69.2% | viability, T/C [36] 60.7% | viability, T/C [12] 46.3%
> 316 nM: IC50 (second compound 0.0316 µM) | IC50 (second compound 0.1 µM) | IC50 (second compound 0.316 µM) | IC50 (second compound 1 µM)
